In ChEMBL document CHEMBL1151176, “Isolation of nor-secofriedelanes from the sedative extracts of Galphimia glauca” (2004):

Experiments:
Assay type in all cases: functional
Conditions in all cases: read-out: ED50 (the source's name)
KB = assay: Cytotoxicity against human KB cells
HCT-15 = assay: Cytotoxicity against human HCT15 cells
OVCAR = assay: Cytotoxicity against human OVCAR cells
[1] = Cytotoxicity against human SQC1 cells

Measured: EC50

COC(=O)[C@@]12CC[C@@]3(C)[C@@H]4C=CC(=O)OC[C@]4([C@@H](C)O)[C@@H](O)[C@@H](O)[C@@H]3[C@@]1(C)CC[C@@]1(C)CC=C(C)C[C@]12O [GALPHIMINE A]
> 4 mg/L: KB | HCT-15 | OVCAR | [1]

COC(=O)[C@@]12CC[C@@]3(C)[C@@H]4C=CC(=O)OC[C@]4([C@@H](C)O)C[C@@H](O)[C@@H]3[C@@]1(C)CC[C@@]1(C)CC=C(C)C[C@]12O [GALPHIMINE B]
> 4 mg/L: KB | HCT-15 | OVCAR | [1]

COC(=O)[C@@]12CC[C@@]3(C)[C@@H]4C=CC(=O)OC[C@]4([C@@H](C)O)C[C@@H](O)[C@@H]3[C@@]1(C)CC[C@@]1(C)CCC(C)=C[C@]12O [GALPHIMINE C]
> 4 mg/L: KB | HCT-15 | OVCAR | [1]

COC(=O)[C@@]12CC[C@@]3(C)[C@@H]4C=CC(=O)OC[C@]4([C@H](C)O)[C@@H](O)[C@@H](OC(C)=O)[C@@H]3[C@@]1(C)CC[C@@]1(C)CC=C(C)C[C@]12O [GALPHIMINE D]
> 4 mg/L: KB | HCT-15 | OVCAR | [1]

COC(=O)[C@@]12CC[C@@]3(C)[C@@H]4C=CC(=O)OC[C@]4([C@@H](C)O)[C@@H](OC(C)=O)[C@@H](O)[C@@H]3[C@@]1(C)CC[C@@]1(C)CC=C(C)C[C@]12O [GALPHIMINE E]
> 4 mg/L: KB | HCT-15 | OVCAR | [1]

C=C1CC[C@]2(C)CC[C@]3(C)[C@H]4[C@H](O)C[C@@]5([C@@H](C)O)COC(=O)C=C[C@H]5[C@]4(C)CC[C@@]3(C(=O)OC)[C@]2(O)C1 [GALPHIMINE F]
> 4 mg/L: KB | HCT-15 | OVCAR | [1]

C=C1CC[C@]2(C)CC[C@]3(C)[C@H]4[C@H](O)[C@H](OC(C)=O)[C@@]5([C@@H](C)O)COC(=O)C=C[C@H]5[C@]4(C)CC[C@@]3(C(=O)OC)[C@]2(O)C1 [GALPHIMINE G]
> 4 mg/L: KB | HCT-15 | OVCAR | [1]

C=C1CC[C@]2(C)CC[C@]3(C)[C@H]4[C@H](O)[C@H](O)[C@@]5([C@H](C)O)COC(=O)C=C[C@H]5[C@]4(C)CC[C@@]3(C(=O)OC)[C@]2(O)C1 [GALPHIMINE H]
> 4 mg/L: KB | HCT-15 | OVCAR | [1]

C=C1CC[C@]2(C)CC[C@]3(C)[C@H]4[C@H](OC(C)=O)[C@H](O)[C@@]5([C@H](C)O)COC(=O)C=C[C@H]5[C@]4(C)CC[C@@]3(C(=O)OC)[C@]2(O)C1 [GALPHIMINE I]
> 4 mg/L: KB | HCT-15 | OVCAR | [1]
